Here are results for 15 compounds from US20260091026A1, “METHODS OF TREATING INFLAMMATORY DISEASES” (INTERLINE THERAPEUTICS, INC., priority 2023, published 2026).

One test addresses T1, RIPK2 (KD)/XIAP (BIR2) (Homo sapiens, UniProt O43353).
T1 construct: made in house; host or cells: baculovirus-infected Sf9 cells
Briefly: RIPK2-XIAP binding competition PPI assay (TR-FRET). Conditions: for Emax: 50 nM of GSK583 = -100% activity, read-out: PPI Amax; for IC50: GST-RIPK2 / His-XIAP (BIR2)-avi, 120 min at 23° C. An excerpt:
The ability of selected compounds of Formula (I) to inhibit the binding of an His-XIAP (BIR2)-avi fusion protein to a GST-RIPK2 fusion protein was quantified employing the TR-FRET-based competition assay as described in the following paragraphs.
Recombinant fusion protein of N-terminal Glutathione-S-Transferase (GST) and a fragment of human RIPK2 (amino acids 1-310 of accession number 043353), expressed in baculovirus infected Sf9 cells, purified via glutathione affinity chromatography, was used as GST-RIPK2 fusion protein. Recombinant fusion protein of N-terminal 6xHistidine (His), a fragment of human XIAP (amino acids 152-231 of accession number P98170), and C-terminal avi tag, expressed in baculovirus infected Sf9 cells, purified via Nickel NTA affinity chromatography, was used as the His-XIAP (BIR2)-avi fusion protein.
For the assay, a working solution of 1 nM GST-RIPK2, 25 nM His-XIAP (BIR2)-avi, 6 nM Anti-His-XL665 […] (Revvity Catalogue No. 61HISXLB), and 0.5 nM Anti-GST-Tb(Revvity Catalogue No. 61GSTTLB) in 25 mM Tris-HCl 7.5, 0.5 mM ethylene glycol-bis(2-aminoethylether)-N,N,N′,N′-tetraacetic acid (EGTA), 10 mM magnesium chloride (MgCl2), 2.5 mM dithiothreitol (DTT), 0.01% (w/v) bovine serum albumin (BSA), 0.005% (w/v) Pluronic F-127 (Sigma), 0.5 mM sodium ortho-vanadate, 5 mM-Glycerophosphate disodium salt hydrate (BGP) was prepared. 50 nL of a 100-fold concentrated solution of each test compound in DMSO was dispensed via acoustic dispensing into a white low volume 384-well microtiter plate (Perkin Elmer Catalogue No. 6008280). Subsequently, 5 μL of the assay working solution were added.
The resulting mixture was incubated 120 min at 23° C. Subsequently, the amount of complex formed by the GST-RIPK2, XIAP (BIR2)-avi, Anti-His-XL665, and Anti-GST-Tb was evaluated by measurement of the resonance energy transfer from the Tb-cryptate to the XL665. Therefore, the fluorescence emissions at 520 nm and 665 nm after excitation at 337 nm were measured in a TR-FRET reader, e.g. a Pherastar FS(BMG Labtechnologies, Offenburg, Germany) or an Envision (PerkinElmer). The ratio of the emissions at 665 nm and at 520 nm was taken as the measure of the amount of the complex. The data were normalized (assay reaction without inhibitor=0% activity, 50 nM of GSK583=−100% activity).
For orientation: TR-FRET usually uses a lanthanide donor and a delayed reading to cut background.

Test [1] concerns THP1-Dual cells, NF-κB pathway (SEAP). Briefly: THP-1 Dual cell SEAP assay (L18-MDP stimulated). The class given is cell-based. Conditions: Homo sapiens, 10 ng/mL L18-MDP, 20-24 h, SEAP readout, read-out: IFNγ THP1 IC50. Here is the method: THP1-Dual™ cells (InvivoGen Cat #thpd-nfis) allow simultaneous assessment of the NF-κB pathway, by monitoring the activity of secreted embryonic alkaline phosphatase (SEAP) as well as the IRF pathway, by assessing the activity of a secreted luciferase (Lucia). Cells were cultured according to manufacturers' recommendations. For the assay, cell concentration was adjusted to 7.14×10^5 cells/mL in assay media (RPMI 1640, 2 mM L-Glutamine, 25 mM HEPES, 10% fetal bovine serum (heat-inactivated for 30 min at 56° C.), Pen-Strep (100 U/mL)) and 35 μL of cell suspension (˜25,000 cells) per well were added to a flat bottom 384-well plate (white opaque). Plate was centrifuged at 300 g for 2 min, compounds were added in serial dilution series according to the plate layout (volumes ˜500 nL-0.0152 nL) and plate was incubated at 37° C. in 5% CO2 for 30 min. Using assay media, a L18-MDP stock solution, that results in a final concentration of 10 ng/mL L18-MDP in each well when adding 15 μL to each well, was prepared. 15 μL of L18-MDP stock solution was added to each well, while 15 μL of assay media was added to the negative control wells. Plates were subsequently incubated at 37° C. in 5% CO2 overnight (20-24 h).
For the SEAP assay: without disturbing the cells at the bottom of the well, 15 μL supernatant was transferred to a clear 384-well flat bottom plate and 35 μL QUANTI-Blue Solution per well was added. Following a 2 h incubation at 37° C., the optical density (OD) was measured at 620-655 nm using a microplate reader (PheraStar FS microplate reader with protocol for OD 620-655 nm).
Values of media-only wells were subtracted and % inhibition for each compound concentration relative to the DMSO/L18-MDP-treated controls was calculated. Inhibition values+/−SD were fitted by non-linear regression using Prism software (GraphPad PRISM Software) to calculate IC50 values.

T1 sequence (O43353 1-310): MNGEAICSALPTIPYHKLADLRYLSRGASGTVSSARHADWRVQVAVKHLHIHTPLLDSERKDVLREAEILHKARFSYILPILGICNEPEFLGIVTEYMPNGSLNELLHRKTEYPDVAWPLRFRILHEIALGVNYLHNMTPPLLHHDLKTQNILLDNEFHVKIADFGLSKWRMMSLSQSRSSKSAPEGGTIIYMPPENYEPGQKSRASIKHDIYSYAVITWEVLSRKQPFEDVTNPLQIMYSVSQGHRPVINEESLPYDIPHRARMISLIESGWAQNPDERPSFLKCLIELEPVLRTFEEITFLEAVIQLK

Regarding `CCn1nc(-c2cnc3cc(OC)c(S(=O)(=O)C(C)(C)C)cn23)cc1C(=O)N[C@@H](C)c1ccn(C)n1` [Example 124, (S)-3-(6-(tert-butylsulfonyl)-7-methoxyimidazo[1,2-a]pyridin-3-yl)-1-ethyl-N-(1-(1-methyl-1H-pyrazol-3-yl)ethyl)-1H-pyrazole-5-carboxamide], at RIPK2 (KD)/XIAP (BIR2), the Emax was no less than 80% and the IC50 (in general, the concentration needed to halve the response being measured) fell in the range of 100 to 1000 nM. Moreover, the IC50 in test [1] is greater than 2500 nM.
On the same counts, the results for `COc1cc2ncc(-c3cc(C(=O)NCc4nsc(C)n4)n(C)n3)n2cc1S(=O)(=O)C(C)(C)C` [Example 91, 3-(6-(tert-butylsulfonyl)-7-methoxyimidazo[1,2-a]pyridin-3-yl)-1-methyl-N-((5-methyl-1,2,4-thiadiazol-3-yl)methyl)-1H-pyrazole-5-carboxamide] are 55 to 80%, 100 to 1000 nM and greater than 2500 nM.
`CCn1nc(-c2cnc3cc(OCCO)c(S(=O)(=O)C(C)(C)C)cn23)cc1C(=O)N[C@H](C)c1nccs1` [Example 120, (R)-3-(6-(tert-butylsulfonyl)-7-(2-hydroxyethoxy)imidazo[1,2-a]pyridin-3-yl)-1-ethyl-N-(1-(thiazol-2-yl)ethyl)-1H-pyrazole-5-carboxamide]: at RIPK2 (KD)/XIAP (BIR2), the Emax was no less than 80% and the 50% inhibitory concentration (IC50) was less than 10 nM. Besides, in test [1], the IC50 is less than 100 nM.
The matching figures for `COc1cc2ncc(-c3cc(C(=O)NCc4n[nH]c5cccc(F)c45)n(C)n3)n2cc1S(=O)(=O)C(C)(C)C` [Example 19, 3-(6-(tert-butylsulfonyl)-7-methoxyimidazo[1,2-a]pyridin-3-yl)-N-((4-fluoro-1H-indazol-3-yl)methyl)-1-methyl-1H-pyrazole-5-carboxamide]: no less than 80%, less than 10 nM and 100 to 500 nM.
On the same counts, the results for `COc1cc2ncc(-c3cc(C(=O)N[C@H](C)c4ncccn4)n(C4CC4)n3)n2cc1S(=O)(=O)C(C)(C)C` [Example 100, (R)-3-(6-(tert-butylsulfonyl)-7-methoxyimidazo[1,2-a]pyridin-3-yl)-1-cyclopropyl-N-(1-(pyrimidin-2-yl)ethyl)-1H-pyrazole-5-carboxamide] are no less than 80%, less than 10 nM and less than 100 nM.
The matching figures for `COc1cc2ncc(-c3cc(C(=O)NCc4ncccc4C#N)n(C)n3)n2cc1S(=O)(=O)C(C)(C)C` [Example 82, 3-(6-(tert-butylsulfonyl)-7-methoxyimidazo[1,2-a]pyridin-3-yl)-N-((3-cyanopyridin-2-yl)methyl)-1-methyl-1H-pyrazole-5-carboxamide]: no less than 80%, 10 to 100 nM and 500 to 2500 nM.
Take `COc1cc2ncc(-c3cc(C(=O)NCc4n[nH]c5cccnc45)n(C)n3)n2cc1S(=O)(=O)C(C)(C)C` [Example 18, N-((1H-pyrazolo[4,3-b]pyridin-3-yl)methyl)-3-(6-(tert-butylsulfonyl)-7-methoxyimidazo[1,2-a]pyridin-3-yl)-1-methyl-1H-pyrazole-5-carboxamide]: the Emax at RIPK2 (KD)/XIAP (BIR2) was no less than 80%. Also, the IC50 on RIPK2 (KD)/XIAP (BIR2) is 10 to 100 nM; in test [1] it was 500 to 2500 nM.
Consider `CCn1nc(-c2cnc3cc(OC)c(S(=O)(=O)C(C)(C)C)cn23)cc1C(=O)N[C@H](C)c1ccccn1` [Example 95, (R)-3-(6-(tert-butylsulfonyl)-7-methoxyimidazo[1,2-a]pyridin-3-yl)-1-ethyl-N-(1-(pyridin-2-yl)ethyl)-1H-pyrazole-5-carboxamide], for which the Emax at RIPK2 (KD)/XIAP (BIR2) was no less than 80%. Moreover, the 50% inhibitory concentration (IC50) on RIPK2 (KD)/XIAP (BIR2) is less than 10 nM; in test [1] it was less than 100 nM.
The matching figures for `COc1cc2ncc(-c3cc(C(=O)N[C@H](C)c4ccccn4)n(C)n3)n2cc1C1(F)CCN(C)CC1` [Example 47, (R)-3-(6-(4-fluoro-1-methylpiperidin-4-yl)-7-methoxyimidazo[1,2-a]pyridin-3-yl)-1-methyl-N-(1-(pyridin-2-yl)ethyl)-1H-pyrazole-5-carboxamide]: no less than 80%, 10 to 100 nM and 500 to 2500 nM.
In the case of `COc1cc2ncc(-c3cc(C(=O)NCc4nc(C)no4)n(C)n3)n2cc1S(=O)(=O)C(C)(C)C` [Example 78, 3-(6-(tert-butylsulfonyl)-7-methoxyimidazo[1,2-a]pyridin-3-yl)-1-methyl-N-((3-methyl-1,2,4-oxadiazol-5-yl)methyl)-1H-pyrazole-5-carboxamide], at RIPK2 (KD)/XIAP (BIR2), the Emax lay within 55 to 80% and the 50% inhibitory concentration (IC50) is greater than 1000 nM. In test [1], the IC50 is greater than 2500 nM.
The matching figures for `CCn1nc(-c2cnc3cc(OCCO)c(S(=O)(=O)C(C)(C)C)cn23)cc1C(=O)N[C@H](C)c1ncc(C)s1` [Example 130, (R)-3-(6-(tert-butylsulfonyl)-7-(2-hydroxyethoxy)imidazo[1,2-a]pyridin-3-yl)-1-ethyl-N-(1-(5-methylthiazol-2-yl)ethyl)-1H-pyrazole-5-carboxamide]: no less than 80%, less than 10 nM and less than 100 nM.
On the same counts, the results for `COc1cc2ncc(-c3cc(C(=O)NCc4ncccc4F)n(C)n3)n2cc1S(=O)(=O)C(C)(C)C` [Example 49, 3-(6-(tert-butylsulfonyl)-7-methoxyimidazo[1,2-a]pyridin-3-yl)-N-((3-fluoropyridin-2-yl)methyl)-1-methyl-1H-pyrazole-5-carboxamide] are no less than 80%, 10 to 100 nM and 500 to 2500 nM.
On the same counts, the results for `COc1cc2ncc(-c3cc(C(=O)N[C@H](C)c4ncccc4F)n(CCCO)n3)n2cc1S(=O)(=O)C(C)(C)C` [Example 145, (R)-3-(6-(tert-butylsulfonyl)-7-methoxyimidazo[1,2-a]pyridin-3-yl)-N-(1-(3-fluoropyridin-2-yl)ethyl)-1-(3-hydroxypropyl)-1H-pyrazole-5-carboxamide] are no less than 80%, 10 to 100 nM and less than 100 nM.
For the compound `COc1cc2ncc(-c3cc(C(=O)N[C@H](C)c4ncccn4)n(C)n3)n2cc1S(=O)(=O)C(C)(C)C` [Example 103, (R)-3-(6-(tert-butylsulfonyl)-7-methoxyimidazo[1,2-a]pyridin-3-yl)-1-methyl-N-(1-(pyrimidin-2-yl)ethyl)-1H-pyrazole-5-carboxamide], on RIPK2 (KD)/XIAP (BIR2), the Emax is no less than 80% and the IC50 lay in the range of 10 to 100 nM. Also, in test [1], the IC50 lay within 100 to 500 nM.
`COc1cc2ncc(-c3cc(C(=O)NCc4ncccc4C)n(C)n3)n2cc1S(=O)(=O)C(C)(C)C` [Example 65, 3-(6-(tert-butylsulfonyl)-7-methoxyimidazo[1,2-a]pyridin-3-yl)-1-methyl-N-((3-methylpyridin-2-yl)methyl)-1H-pyrazole-5-carboxamide]: on RIPK2 (KD)/XIAP (BIR2), the Emax was no less than 80% and the IC50 fell in the range of 100 to 1000 nM. Besides, in test [1], the IC50 was greater than 2500 nM.
